Results on 11 compounds are retold here after patent US5494901A, “Topical compositions for the eye comprising a β-cyclodextrin derivative and a therapeutic agent” (priority 1993, dated 1996).

Values after ≈ are worked out from the molar mass of the structure shown. Counter-ions that a name gives are not always drawn. Like-named read-outs stand apart in the source and are kept apart here.

Series [1] in a line: Maximum solubility and guest/host molar ratios in 45% hydroxypropyl-β-cyclodextrin (Example 6). It is filed as physicochemical. Particulars: for solubility: 45% hpbcd. The method, then: 45% (w/v) aqueous solutions of 2-hydroxypropyl-β-cyclodextrin using either source A or B (see Example 3) were prepared, and the maximum solubilities of phenoltetrabromphthalein and of cholesterol were determined per 5.0 ml of solution using standard techniques. Phenoltetrabromphthalein concentration was determined spectrophotometrically at 580 mμ. Cholesterol concentration was determined by both GLC and by liquid scintillation counting using cholesterol of known specific activity. The data are shown below, along with a summary of data from other examples.

The conditions of series [2]: with β-cyclodextrin at either 3% or 1.5%; topical; Grove et al.; cited from earlier work.
Series [3] deals with anterior chamber of the eye. Kind of series: Fluorescence in anterior chamber after topical Na-Fluorescein, slit lamp biomicroscope. It is filed as in vivo, New Zealand white rabbit. To be noted: 2% Na-Fluorescein in 0.9% saline; at one hour; rabbit. The method, then:
Solutions of 2% Na-Fluorescein were prepared in 0.9% Saline, 4.5% HPBCD, and 45% HPBCD (the HPBCD is Type B of Example 3). Each solution was applied to the eye of a New Zealand white rabbit and observed for a period of one hour. The anterior chamber of the eye was examined with a standard blue light source on a slit lamp biomicroscope.

In series [4] the test system is intraocular pressure. The series can be described thus: Intraocular pressure after topical acetazolamide preparations, Perkins applanation tonometer (Example 2). It is filed as in vivo, New Zealand white rabbits. To be noted: 1% Na-acetazolamide in 0.9% NaCl, FIG. 1. The method, then:
Solutions of 1% acetazolamide in 45% HPBCD and 1% Na-acetazolamide in 0.9% NaCl were applied to paired right and left eyes of 10 New Zealand white rabbits (the HPBCD is Type B of Example 3). Intraocular pressure was measured with a Perkins applanation tonometer at hourly intervals until all pressures returned to baseline. […] As a further control, the acetazolamide/HPBCD preparation was compared with 45% HPBCD alone (control).

Series [5] can be described thus: Palmitic acid in centrifuged fractions of 2-hydroxypropyl-β-cyclodextrin solution in D2O, by GLC (Example 7). It is filed as physicochemical. Particulars: Wacker HPBCD in D2O, 100,000× g 3 hours. The method, then:
2.25 g of Wacker 2-hydroxypropyl-β-cyclodextrin (Source C of Example 3) was dissolved in D2 O to give a final volume of 5.0 ml. 100 mg of palmitic acid was added to the solution and the mixture placed in an ultrasonic water bath at 60° C. for several hours, after which it was brought to room temperature and filtered through an 0.22 mμ millipore filter to obtain a clear solution. 3.0 ml of the solution was centrifuged at 100,000× g for 3 hours in a Beckman TL-100 centrifuge. Following centrifugation, aliquots of approximately 1.0 ml were removed from the tube to give upper, middle and lower fractions. A 0.1 ml aliquot from each fraction was pipetted into a tube and 1 mg of cholesterol added as an internal standard. Each tube was then partitioned between ethyl acetate and water to extract all of the palmitic acid and internal standard. The amount of palmitic acid in each aliquot was then determined by GLC using a flame detector.

Series [6] is described as follows: Maximum solubility of acetazolamide with commercial HPBCD preparations (Example 3). The class given is physicochemical. The source says: The solubility of the active agent can be determined by any of the conventional methods available. For example, solutions of the agent, prepared with and without a β-cyclodextrin derivative, can be filtered (e.g., using a 0.22 or 0.45 μm membrane filter) to eliminate undissolved agent, and subjected to chromatography (e.g., reverse-phase HPLC) to determine the concentration of agent present in the solution.
In order to assess the efficiency of 3 different commercially available preparations of HPBCD, the maximum solubility of acetazolamide (maximum solubility in water: 0.1%) was determined for each. The three sources of HPBCD were (A) Roquette (RE No. 446601), (B) American Maize ("Encapsin"), and (C) Wacker Chemical (BetaW7, HP0.9).

A short description of series [7]: Maximum solubility and guest/host molar ratios in 45% hydroxypropyl-β-cyclodextrin (Example 6). The class given is physicochemical. To be noted: source C (Wacker).
The conditions of series [8]: cited from earlier work.
For series [9], the system named is intraocular pressure of the normal rabbit eye. To be noted: topical, Silvestrini; cited from earlier work.
Series [10] deals with intraocular pressure. Kind of series: Intraocular pressure after 1% methazolamide in 45% HPBCD, applanation tonometry (Example 5). The class given is in vivo, New Zealand white rabbits. Particulars: dissolved in HPBCD. The method, then: Solutions of 1% methazolamide in 45% HPBCD and the HPBCD alone (control) were applied to paired right and left eyes of New Zealand white rabbits. Intraocular pressure was measured by applanation tonometry until pressures returned to baseline.

Where [11] appears, read: source A (Roquette), read-out: maximum solubility.
[12] abbreviates: source B (A. Maize), read-out: maximum solubility.

As for `C[C@@H](CO)CCC[C@@H](C)[C@H]1CC[C@H]2[C@@H]3CC=C4C[C@@H](O)CC[C@]4(C)[C@H]3CC[C@]12C` [26-hydroxy cholesterol], the guest/host molar ratio result in series [1] is “.16”. In addition, the solubility in series [1] (maximum solubility) is 20000 µg/mL.
Regarding `CC(C)CCC[C@@H](C)[C@H]1CC[C@H]2[C@@H]3CC=C4C[C@@H](O)CC[C@]4(C)[C@H]3CC[C@]12C` [Cholesterol, cholesterol], the guest/host molar ratio entry was “.0015” in series [1] (45% HPBCD, source A (Roquette)) and “.038” in series [1] (45% HPBCD, source B (A. Maize)). The solubility is 80 µg/mL in [1] (setting [11]) and 4300 µg/mL in series [1] (setting [12]).
For `CCN[C@H]1C[C@H](C)S(=O)(=O)c2sc(S(N)(=O)=O)cc21` [L-671152], the “ocular bioavailability compared to inhibitor administered alone” value in [2] is “about 50%”.
In the case of `O=C1OC2(c3ccc(O)cc3Oc3cc(O)ccc32)c2ccccc21` [Na-Fluorescein], the “fluorescence seen in the eye” value in series [3] was “considerable fluorescence”.
On to `CC(=O)Nc1nnc(S(N)(=O)=O)s1` [Na-acetazolamide], for which the “lowering of intraocular pressure” value in [4] is recorded as “only a transient, non-statistically significant lowering of intraocular pressure”.
Turning to `CCCCCCCCCCCCCCCC(=O)O` [Palmitic acid, palmitic acid], the “Palmitic acid in fraction” value in series [5] (Lower fraction) was found to be 23.4 μg/0.1 ml; in series [5] (Middle fraction) it was 34.0 μg/0.1 ml; in [5] (Upper fraction), 41.0 μg/0.1 ml.
Turning to `CC(=O)Nc1nnc(S(N)(=O)=O)s1` [acetazolamide], the solubility in series [6] (hpbcd solution, HPBCD source A, Roquette (RE No. 446601), read-out: maximum solubility) is 1000 µg/mL (≈ 4.5 mM); in [6] (hpbcd solution, HPBCD source B, American Maize ("Encapsin"), read-out: maximum solubility), 10000 µg/mL (≈ 45 mM); in series [6] (hpbcd solution, HPBCD source C, Wacker Chemical (BetaW7, HP0.9), read-out: maximum solubility) it was 18000 µg/mL (≈ 81 mM); in series [6] (water, read-out: maximum solubility in water), 1000 µg/mL (≈ 4.5 mM); in series [1] (setting [11]), over 5000 µg/mL; in series [1] (setting [12]) it was 20000 µg/mL. In [7] (45% hpbcd), the solubility came out at 20000 µg/mL. The guest/host molar ratio in series [1] (45% HPBCD, source B (A. Maize)) was 0.31; in series [7] (45% HPBCD), 0.31.
In the case of `CNCC(O)c1ccc(OC(=O)C(C)(C)C)c(OC(=O)C(C)(C)C)c1` (centres unmarked) [dipiviphrine], the “sensitivity developed by patients” value in [8] (human, in vivo) was “frequently develop sensitivity”.
With `CC(=O)Nc1nnc(S(N)(=O)=O)s1` [disodium salts of acetazolamide], the “lowering of intraocular pressure” value in [9] is listed as “can be used to lower the intraocular pressure of the normal rabbit eye”.
`CNC[C@H](O)c1ccc(O)c(O)c1` [epinephrine]: the “sensitivity developed by patients” value in series [8] (topical, used for a year or longer) is “frequently develop sensitivity”.
`CC(=O)/N=c1/sc(S(N)(=O)=O)nn1C` [methazolamide]: in [10], the “duration of effect relative to acetazolamide” value is recorded as “longer duration of effect than does acetazolamide” and the “potency relative to acetazolamide” value is “more potent”.

Usually solubility stands for the concentration that dissolves in the medium under given conditions.
